Results taken from US9045454B2, “Bicyclic pyrrole derivatives useful as agonists of GPR120” (Janssen Pharmaceutica NV, priority 2013, dated 2015).

System: C57bl/6J Mice
Assay: GPR120 C57bl6 Mouse IPGTT
Type: in vivo
Conditions: 30.0 mg/kg, dosed 30 minutes prior to glucose (IP 1.5 g/kg)
Procedure: Male, C57bl/6J Mice were ordered in at 8 weeks of age from Jackson Labs. Individual mice weighed anywhere in the range of 25-30 grams on study day. The mice were fasted, with removal of food occurring at 7 am on the morning of the study. Animals were moved into the room at 10:00 am, to give them time to acclimate. Glucose (insulin syringes) was drawn up either the night before or the morning of the study. Glucose was dosed (IP) at 1.5 g/kg at 7.5 ml/kg (20% glucose straight TEKNOVA, 250 ml sterile bottle w/ catalogue number G0525). Test compounds were kept spinning and were only drawn into the syringes prior to study commencement. Animals were bled via tail snip to determine basal glucose levels prior to dosing of treatments. An Ascensia BREEZE Blood Glucose Monitoring System by Bayer (using unique 10-test disks) was used for determining glucose levels. The bleeds started at approximately 12:45 pm and dosing started, at 1-minute intervals, immediately after. All groups were dosed 30 minutes prior to glucose administration at a dose volume of 10 ml/kg (the dose volume was calculated separately for each individual animal). Thirty minutes after the first dose animals were bled again for a second baseline, or T=0, and immediately dosed with glucose via an i.p. injection. The exact dose volume for glucose was also calculated separately for each individual animal. […]

## Cc1c(CCC(=O)O)ccc(OCc2cccn2-c2ccc(Cl)cc2)c1C [Compound 1, 3-(4-{[1-(4-Chlorophenyl)-1H-pyrrol-2-yl]methoxy}-2,3-dimethylphenyl)propanoic acid]
  GPR120 C57bl6 Mouse IPGTT Results: not different
